# Measured values reported in US20170107579A1, “E1 ENZYME MUTANTS AND USES THEREOF” (Millennium Pharmaceuticals, Inc., priority 2011, published 2017).
# Experiments:
# [1] = tested on: MLN4924 resistant HCT-116 cell clones; test: Cell viability assay, 96 hours ATPlite, resistant clones; assay type: cell-based; details: for sensitivity of MLN4924 resistant clones to other chemotherapies: HCT-116 resistant clones, 96 hours ATPlite
# Experimental: HCT-116 cells and resistant clones were treated with DMSO or various concentrations of FIG. 7A. bortezomib, FIG. 7B. doxorubicin or FIG. 7C. SN-38 for 96 hours and cell viability was assessed with ATPlite assay.
# (§1) Cell line cultures were maintained using appropriate cell culture media as recommended by ATCC and as previously reported (Soucy et al., 2009, Milhollen et al., 2010). […] Cell viability assays completed using 96 hours ATPlite assay (PerkinElmer) as previously reported (Soucy et al., 2009).
# [2] = tested on: HCT-116 WT, HCT-116.1 A171T and HCT-116.4 C324Y cells; test: Drug efflux inhibitor co-incubation, ATPlite viability assay; assay type: cell-based
# Experimental: Treatment of cells with efflux inhibitors. FIG. 8A. […] Co-incubation studies were performed with various inhibitors of drug efflux at their highest non toxic concentration.
# Diypridamole (Sigma), MK571 (Tocris), GF918, K0143 (Tocris) and LY5979 were obtained from commercial sources indicated.
# [3] = tested on: NEDD8-cullin levels in HCT-116 WT and A171T xenografts; test: Pharmacodynamic marker analysis in tumor xenografts; assay type: in vivo, rat; details: single dose of 150 mg/kg
# Source text: (§2) The relative levels of NEDD8-cullin and pIxBa were estimated by quantitative immunoblot analysis (Li-cor Odyssey system) using Alexa680-labelled anti-IgG (Molecular Probes) as the secondary antibody. For the analysis of CDT1 and cleaved caspase-3 levels in tumor sections, formalin-fixed, paraffin-embedded tumour sections were stained with the relevant antibodies, amplified with HRP-labelled secondary antibodies and detected with the ChromoMap DAB Kit (Ventana Medical Systems). Slides were counterstained with haematoxylin. Images were captured using an Eclipse E800 microscope (Nikon Instruments) and Retiga EXi colour digital camera (QImaging) and processed using Metamorph software (Molecular Devices). CDT1 and cleaved caspase-3 are expressed as a function of the DAB signal area.
# The digests were analyzed on a LC/MS/MS system as previously described (Brownell et al., 2010).
# [4] = tested on: A171T THP-1 xenografts; test: Antitumor study, re-established resistant xenograft in SCID mice; assay type: in vivo, mouse; details: A171T THP-1 xenograft, 90 mg/kg BID bi-weekly
# Experimental: (§3) Female NCr Nude rats (Taconic Farms) aged 6-8 weeks were inoculated with 10×10^6 HCT-116 cells subcutaneously in the right flank. Tumor growth was measured using digital vernier calipers. […] Rats received one dose per day biweekly for 2 weeks (days 1, 4, 8, and 11) of a 21-day therapy cycle. After three cycles of treatment refractory tumors were collected. Female CB-17 SCID mice (Charles River Laboratories) aged 6-8 weeks were inoculated with 2×10^6 THP-1 or OCI-Ly10 cells with Matrigel™ support (1:1, v/v). […] Mice received two doses per day bi-weekly (days 1, 4, 8, 11, 15, 18, 22 . . . ) until tumors reached approximately 500-800 mm^3. Tumors were then collected and one 40-50 mg piece of tumor was subcutaneously implanted using a 13 gauge trocar needle into 6 to 8 naïve animals for further study. In addition tumor DNA was extracted for mutational analysis as described in supplementary information.
# The subcutaneous model was utilized to facilitate harvesting tumors for subsequent analysis. […] Three THP-1 xenografts contained a heterozygous mutation in NAEB at A171T, one contained a heterozygous mutation in at N209D and the remaining two were wild type for NAEB and so may be refractory through an alternate mechanism (FIG. 14A and Table 6).
# [5] = tested on: Calu-6 cells; test: Cell viability assay, 96 hours ATPlite; assay type: cell-based; details: Homo sapiens, Calu-6 parental cells
# Experimental: as §1
# [6] = tested on: NCI-H460 cells; test: Cell viability assay, 96 hours ATPlite; assay type: cell-based; details: Homo sapiens, NCI-H460 parental cells
# Experimental: as §1
# [7] = tested on: HCT-116 cells; test: Cell viability assay, 96 hours ATPlite; assay type: cell-based; details: Homo sapiens, HCT-116 parental cells
# Experimental: as §1
# [8] = tested on: NEDD8 pathway (NEDD8-cullin, NEDD8-NAEβ, NEDD8-Ubc12, CDT1, NRF2); test: Western blot pathway analysis of treated cells; assay type: cell-based
# Experimental: Whole cell extracts were prepared and immunoblotting assays performed as previously described (Soucy, 2009) with primary antibodies as follows: CDT1, NRF2, NEDD8, NAEβ, UBC12 and 4924-NEDD8-ADS (MIL22) (Millennium); UBC10 (Boston Biochem); K48 (Millipore); NAE1 (sigma) and tubulin (Santa Cruz). Secondary Alexa-680-labelled antibodies to rabbit/mouse IgG (Molecular Probes) were used as appropriate and blots were imaged using the Li-Cor Odyssey Infared Imaging system.
# The reduced effect on NAE inhibition was confirmed by a reduced accumulation of two CRL substrates, Nrf2 and Cdt1.
# [9] = Antitumor study, subcutaneous xenografts in nude rats; assay type: in vivo; details: female, NCr Nude, rat, in vivo, sc; immunocompromised rats, subcutaneously, days 1, 4, 8 and 11 of a 21 day cycle; read-out: maximum tolerated dose
# Experimental: as §3
# [10] = tested on: HCT-116 xenografts (WT); test: as above; assay type: in vivo
# Experimental: as §3
# [11] = biological target: T1, wild-type UBA6 (Homo sapiens, UniProt A0AVT1); test: UBA6 pyrophosphate exchange assay; assay type: biochemical; details: wt UBA6 5 nM, 1 mM ATP, 4 μM ubiquitin, 60 minutes at 30° C.
# T1 construct: His6 (N); made in house; host or cells: Sf9 insect cells (baculovirus, single infection)
# Experimental: (§4) ATP and PPi titrations were run under similar condition, except ubiquitin was fixed at 4 μM. […] ATP standard curve.
# (§5) Reactions were initiated with addition of 4 μM ubiquitin.
# [12] = biological target: T2, A573D UBA6 (Homo sapiens, UniProt A0AVT1, A573D); test: UBA6 pyrophosphate exchange assay; assay type: biochemical; details: A573D UBA6 5 nM, 1 mM ATP, 4 μM ubiquitin
# T2 construct: His6 (N); made in house; host or cells: Sf9 insect cells (baculovirus, single infection)
# Experimental: as §4, §5
# [13] = biological target: T3, A573T UBA6 (Homo sapiens, UniProt A0AVT1, A573T); test: UBA6 pyrophosphate exchange assay; assay type: biochemical; details: A573T UBA6 5 nM, 1 mM ATP, 4 μM ubiquitin
# T3 construct: His6 (N); made in house; host or cells: Sf9 insect cells (baculovirus, single infection)
# Experimental: as §4, §5
# [14] = tested on: MLN4924 resistant Calu-6 clone; test: Cell viability assay, 96 hours ATPlite, resistant clone; assay type: cell-based; details: Homo sapiens; one Calu-6 resistant clone
# Experimental: (§6) FIG. 6A. Calu-6 and FIG. 6B.
# as §1
# [15] = tested on: HCT-116 WT, A171T and G201V cells; test: Cell cycle analysis (propidium iodide, flow cytometry); assay type: cell-based; details: HCT-116 resistant A171T and G201V clones, 1 μM, 24 hours
# Experimental: Cell cycle analysis. FIG. 11A. HCT-116 WT, FIG. 11B. HCT-116.1 A171T and FIG. 11C.
# Logarithmically growing cells were incubated with either MLN4924 or DMSO for the times indicated. Collected cells were fixed in 70% ethanol and stored overnight at 4° C. Fixed cells were centrifuged to remove ethanol, and the pellets were resuspended in propidium iodide and RNaseA in PBS for 1 h on ice protected from light. Cell-cycle distributions were determined using flow cytometry (FACS Calibur, Becton Dickinson) and analysed using Winlist software (Verity).
# [16] = tested on: A171T HCT-116 xenografts; test: Antitumor study, re-transplanted resistant xenograft in nude rats; assay type: in vivo, rat; details: A171T HCT-116 xenograft, one cycle of 150 mg/kg (days 1, 4, 8, 11)
# Experimental: as §3
# The A171T NAEβ mutation was still present in this resistant xenograft model as confirmed by both Sanger and Sequenom methodologies.
# [17] = tested on: MLN4924 resistant NCI-H460 clones; test: Cell viability assay, 96 hours ATPlite, resistant clones; assay type: cell-based; details: Homo sapiens; two NCI-H460 resistant clones
# Experimental: as §6, §1
# [18] = tested on: OCI-Ly10 DLBCL xenografts; test: Antitumor study, subcutaneous xenografts in CB-17 SCID mice; assay type: in vivo, mouse; details: 90 mg/kg BID bi-weekly
# Experimental: as §3
# [19] = tested on: THP-1 AML xenografts; test: as above; assay type: in vivo, mouse; details: THP-1 xenografts, 90 mg/kg BID, biweekly
# Experimental: as §3
# [20] = tested on: NEDD8-cullin levels in A171T THP-1 xenografts; test: Pharmacodynamic marker analysis in tumor xenografts; assay type: in vivo, mouse; details: single dose 90 mg/kg
# Source text: as §2
# [21] = tested on: E204G OCI-Ly10 xenografts; test: Antitumor study, re-implanted resistant xenograft in SCID mice; assay type: in vivo, mouse; details: re-implanted E204G OCI-Ly10 tumor, 90 mg/kg BID
# Experimental: as §3
# [22] = biological target: T4, wild type UBA3 (NAE) (Homo sapiens, UniProt Q8TBC4); test: NAE HTRF assay, IC50 at KM for ATP (20 μM); assay type: biochemical; details: read-out: NAE WT IC50
# T4 construct: His; made in house; host or cells: E. coli Rosetta (DE3), co-expression
# Experimental: (§7) The enzyme reversibility assay was run in the FLAG-NEDD8-GST-UBC12 HTRF transthiolation assay described previously (Soucy et al., 2009, Brownell et al., 2010). Final concentrations of each enzyme after dilution were 10 pM WT NAEβ, 12.5 pM A171T NAEβ, 30 pM N209K NAEβ, and 33 pM E204K/G201V NAEβ.
# (§8) IC50 measurements were performed in the HTRF assay described in Example 6. Assays for each enzyme were performed at their KM for ATP (20 μM for wild type, 120 μM for the A171T mutant).
# (§9) An NAE enzymatic reaction totals 50 μL and contains 50 mM HEPES (pH 7.5), 0.05% BSA, 5 mM MgCl2, 20 μM ATP, 250 μM GSH, 0.01 μM UBC12-GST, 0.075 NEDD8-Flag and 0.28 nM recombinant human NAE enzyme. The enzymatic reaction mixture, with and without compound inhibitor, is incubated at 24° C. for 90 minutes in a 384-well plate before termination with 25 μL of Stop/Detection buffer (0.1M HEPES pH 7.5, 0.05% Tween20, 20 mM EDTA, 410 mM KF, 0.53 nM Europium-Cryptate labeled monoclonal anti-FLAG M2 antibody (CisBio International) and 8.125 μg/mL PHYCOLINK goat anti-GST allophycocyanin (XL-APC) antibody (Prozyme)). After incubation for 3 hours at 24° C., quantification of the FRET is performed on the Analyst™ HT 96.384 (Molecular Devices).
# [23] = biological target: T5, UBA3 variant with A171T mutation (NAE) (Homo sapiens, UniProt Q8TBC4, A171T); test: NAE HTRF assay, IC50 at KM for ATP (120 μM); assay type: biochemical
# T5 construct: His; made in house; host or cells: E. coli Rosetta (DE3), co-expression
# Experimental: as §7, §8, §9
# T5 sequence (Q8TBC4 whole entry A171T): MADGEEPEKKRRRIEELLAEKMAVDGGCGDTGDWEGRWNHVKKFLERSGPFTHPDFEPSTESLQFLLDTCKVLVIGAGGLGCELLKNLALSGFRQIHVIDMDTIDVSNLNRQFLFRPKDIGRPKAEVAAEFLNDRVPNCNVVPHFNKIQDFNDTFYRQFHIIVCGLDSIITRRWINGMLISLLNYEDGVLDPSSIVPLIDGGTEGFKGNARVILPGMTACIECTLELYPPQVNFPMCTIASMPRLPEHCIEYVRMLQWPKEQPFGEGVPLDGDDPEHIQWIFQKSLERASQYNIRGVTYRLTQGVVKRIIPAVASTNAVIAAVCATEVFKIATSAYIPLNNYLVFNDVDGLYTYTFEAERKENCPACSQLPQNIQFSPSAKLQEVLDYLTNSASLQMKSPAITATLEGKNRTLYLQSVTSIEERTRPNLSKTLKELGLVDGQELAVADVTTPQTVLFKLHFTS
# T5 sequence (Q13564 whole entry partner): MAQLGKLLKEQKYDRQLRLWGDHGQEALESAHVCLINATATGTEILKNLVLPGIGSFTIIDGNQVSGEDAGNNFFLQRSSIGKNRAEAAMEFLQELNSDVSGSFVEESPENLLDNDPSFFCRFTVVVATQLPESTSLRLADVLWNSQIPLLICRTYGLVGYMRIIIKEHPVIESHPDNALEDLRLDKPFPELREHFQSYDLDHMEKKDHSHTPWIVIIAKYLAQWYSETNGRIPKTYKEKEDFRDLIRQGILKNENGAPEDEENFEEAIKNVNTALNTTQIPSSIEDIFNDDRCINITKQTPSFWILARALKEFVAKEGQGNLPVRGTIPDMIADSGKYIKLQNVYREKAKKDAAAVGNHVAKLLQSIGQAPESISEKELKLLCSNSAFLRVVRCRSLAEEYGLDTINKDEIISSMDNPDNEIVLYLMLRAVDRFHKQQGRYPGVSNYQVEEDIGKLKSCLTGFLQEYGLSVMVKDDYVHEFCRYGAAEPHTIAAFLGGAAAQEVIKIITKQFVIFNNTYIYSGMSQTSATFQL
# T5 sequence (Q15843 1-76 partner limits assumed): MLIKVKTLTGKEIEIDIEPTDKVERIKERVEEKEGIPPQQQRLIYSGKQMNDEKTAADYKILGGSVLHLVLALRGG
# T4 sequence (Q8TBC4 whole entry): as the sequence (Q8TBC4 whole entry A171T) above, with T171A counted along it
# T4 sequence (Q13564 whole entry partner): as the sequence (Q13564 whole entry partner) above
# T4 sequence (Q15843 1-76 partner limits assumed): as the sequence (Q15843 1-76 partner limits assumed) above
# T2 sequence (A0AVT1 whole entry A573D): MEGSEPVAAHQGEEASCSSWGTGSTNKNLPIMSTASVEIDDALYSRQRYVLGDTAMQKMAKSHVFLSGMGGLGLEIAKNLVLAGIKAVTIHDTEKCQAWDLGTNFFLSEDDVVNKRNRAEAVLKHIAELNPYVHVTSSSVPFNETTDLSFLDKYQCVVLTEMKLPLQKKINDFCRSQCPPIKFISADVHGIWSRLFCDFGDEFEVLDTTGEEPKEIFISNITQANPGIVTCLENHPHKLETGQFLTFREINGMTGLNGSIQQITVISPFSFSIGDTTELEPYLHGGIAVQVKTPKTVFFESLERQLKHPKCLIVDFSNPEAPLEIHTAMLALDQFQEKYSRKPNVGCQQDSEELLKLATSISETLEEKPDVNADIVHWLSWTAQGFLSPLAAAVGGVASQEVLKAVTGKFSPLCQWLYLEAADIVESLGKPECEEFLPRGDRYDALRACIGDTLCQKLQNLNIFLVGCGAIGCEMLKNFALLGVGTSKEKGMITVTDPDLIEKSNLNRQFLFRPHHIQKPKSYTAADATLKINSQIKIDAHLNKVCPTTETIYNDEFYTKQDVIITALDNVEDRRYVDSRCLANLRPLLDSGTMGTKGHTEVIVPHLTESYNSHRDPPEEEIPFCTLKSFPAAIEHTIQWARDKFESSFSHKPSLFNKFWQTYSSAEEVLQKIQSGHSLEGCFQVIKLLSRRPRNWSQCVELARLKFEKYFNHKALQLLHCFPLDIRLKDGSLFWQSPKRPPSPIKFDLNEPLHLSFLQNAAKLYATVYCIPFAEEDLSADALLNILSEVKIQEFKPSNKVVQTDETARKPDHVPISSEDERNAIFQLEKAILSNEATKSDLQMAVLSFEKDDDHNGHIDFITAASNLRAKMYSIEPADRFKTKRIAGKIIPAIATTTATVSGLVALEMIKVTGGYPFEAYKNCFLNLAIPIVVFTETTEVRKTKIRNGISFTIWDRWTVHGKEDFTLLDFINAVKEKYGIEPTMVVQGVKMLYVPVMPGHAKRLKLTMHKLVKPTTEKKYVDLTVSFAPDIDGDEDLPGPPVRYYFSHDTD
# T3 sequence (A0AVT1 whole entry A573T): as the sequence (A0AVT1 whole entry A573D) above, with D573T counted along it
# T1 sequence (A0AVT1 whole entry): as the sequence (A0AVT1 whole entry A573D) above, with D573A counted along it
structure (smiles),measurement,setting,value
CC(C)C[C@H](NC(=O)[C@H](Cc1ccccc1)NC(=O)c1cnccn1)B(O)O [bortezomib],sensitivity of MLN4924 resistant clones to other chemotherapies,[1],remained sensitive
CCc1c2c(nc3ccc(O)cc13)-c1cc3c(c(=O)n1C2)COC(=O)[C@]3(O)CC [SN-38],sensitivity of MLN4924 resistant clones to other chemotherapies,[1],remained sensitive
COc1ccc2c3c([nH]c2c1)[C@H](CC(C)C)N1C(=O)[C@H](CCC(=O)OC(C)(C)C)NC(=O)[C@@H]1C3 [Compound K0143],"sensitization of cells to MLN4924 by Pgp, BCRP and MRP2 inhibitors","[2]; co-treatment with MLN4924, 96 hours",did not sensitize
"NS(=O)(=O)OC[C@@H]1C[C@@H](n2ccc3c(N[C@H]4CCc5ccccc54)ncnc32)C[C@@H]1O [MLN4924, ((1S,2S,4R)-4-{4-[(1S)-2,3-dihydro-1H-inden-1-ylamino]-7H-pyrrolo[2,3-d]pyrimidin-7-yl}-2-hydroxycyclopentyl)methyl sulphamate]",time of maximal inhibition of NEDD8-cullin levels post-dose,[3]; A171T HCT-116 resistant model,8 h
same,time of maximal inhibition of NEDD8-cullin levels post dose,[3]; WT HCT-116 xenografts,1 h
same,antitumor effect,[4],resistant
same,EC50,[5],80 nM
same,EC50,[6],1070 nM
same,EC50,[7],46 nM
same,"inhibition of NEDD8 conjugation to NAEB, UBC12 and the cullin proteins",[8]; HCT-116 A171T and G201V clones compared to WT cells,reduced effect of inhibition
same,effect on the neddylation pathway and CRL substrate accumulation,[8]; NCI-H460 A171D and Calu-6 N209K clones,reduced potency
same,MTD,[9],150 mg/kg
same,antitumor effect,"[10]; WT HCT-116 xenografts, after first cycle, 150 mg/kg s.c.",tumor regressions
same,tumor growth inhibition,"[10]; wild type HCT-116 xenografts, one cycle of 150 mg/kg (days 1, 4, 8, 11)",94%
same,IC50,[11],6200 ± 800 nM
same,IC50,[12],> 100000 nM
same,IC50,[13],> 100000 nM
same,EC50,[14],> 10000 nM
same,cell cycle distribution,[15],not significantly altered
same,EC50,"[1]; Homo sapiens, four HCT-116 resistant clones",> 10000 nM
same,tumor growth inhibition,[16],38%
same,EC50,[17],> 10000 nM
same,antitumor effect,[18],tumor regressions
same,antitumor effect,[19],uniform tumor regressions
same,inhibition of NEDD8-cullin levels,[20],minimal inhibition
same,antitumor effect,[21],resistant
same,MLN4924 activity on co-incubation with drug efflux inhibitors,"[2]; efflux inhibitors at highest non toxic concentration, 96 hours",unaffected
NS(=O)(=O)OCC1OC(n2cnc3c(NCc4ccccc4)ncnc32)C(O)C1O (stereo not drawn) [Compound I-6],IC50,[22],0.73 nM
same,IC50,"[23]; UBA3 A171T mutant, HTRF assay at KM for ATP, 120 μM",84 nM
same,A171T/WT,[23]; ratio of IC50 A171T mutant to IC50 wild type,115
